From patent publication US20260021154A1, “HERBAL ANTI-INFAMMATORY COMPOSITION” (CIRA HERBALS LLP, priority 2022, published 2026)

Test system: milk-induced eosinophilia and leukocytosis
Assay: Milk-induced eosinophilia and leukocytosis in mice
Format: in vivo, Swiss albino mice
Conditions: for Eosinophil (mean ± SD), post-treatment / Total leucocyte count (mean ± SD), post-treatment: 24 h after dosing, p.o. 1 h before boiled and cooled milk 4 ml/kg s.c., polyherbal extract 307 mg/kg, levocetirizine 0.9 mg/kg, fexofenadine 21 mg/kg; for Eosinophil (mean ± SD), pre-treatment / Total leucocyte count (mean ± SD), pre-treatment: before treatment, 6 mice/group
Procedure: The composition of the present invention was assessed using milk-induced cosinophilia and leukocytosis animal model to evaluate the anti-inflammatory activity.
Injection of milk into mice induces allergy response which in turn causes leucocytosis. Leukocytosis is the condition of having a high number of leukocytes in the blood. Leukocytes are white blood cells. Leukocytosis may be a temporary response to an allergy, infection or an injury as the body is healing naturally, or it can be a sign of disease.
Study was conducted to check the effect of extracts on milk-induced eosinophilia and leukocytosis in mice, by determining the count of eosinophils and leukocytes. For this model, 54 Swiss albino mice weighing in the range of 20-25 gm were used and divided in nine groups (6 mice/group). The eosinophils and leukocyte count was checked before and after treatment i.e. 24 hours after dosing with polyherbal formulation and standard drugs.
All the animals were maintained in the animal house under standard conditions: temperature (24±1° C.), relative humidity (45-55%), light (12 h) and dark (12 h) cycle, and were allowed free access to food and water ad libitum. After one-week acclimatization in the animal house, the animals were used for the experiments.
Polyherbal extract containing Nigella sativa 88 mg/kg, Tinospora cordifolia 158 mg/kg, Petasites hybridus 26 mg/kg and Perilla frutescens 35 mg/kg was suspended in carboxy methyl cellulose. The suspension thus contained 307 mg/kg of the extract.
Similarly, standard drugs levocetirizine and fexofenadine were prepared as per requirement
The treatment of polyherbal extract and standard drug formulation were given orally 1 hour prior to injection of boiled and cooled milk. After 24 hours, blood samples were collected from retro orbital plexus, under ketamine xylazine anesthesia. Total eosinophil and differential leukocyte count per cu·mm was anlysed using hematology analyzer before and after treatment.

Question: For `CC(C)(C(=O)O)c1ccc(C(O)CCCN2CCC(C(O)(c3ccccc3)c3ccccc3)CC2)cc1` (centres unmarked) [Fexofenadine], which “Eosinophil (mean ± SD), post-treatment” value is on record?
Answer: Its value is 0.183 ± 0.075 10^3/μL.

Question: And the “Total leucocyte count (mean ± SD), post-treatment” value?
Answer: Its value is 6.917 ± 0.436 10^3/μL.

Question: What about the “Eosinophil (mean ± SD), pre-treatment” value of the same compound?
Answer: The value was 0.17 ± 0.08 10^3/μL.

Question: What about the “Total leucocyte count (mean ± SD), pre-treatment” value of the same compound?
Answer: The value was 7.87 ± 0.72 10^3/μL.

Question: What does the source list for `O=C(O)COCCN1CCN([C@H](c2ccccc2)c2ccc(Cl)cc2)CC1` [Levocetirizine]?
Answer: Eosinophil (mean ± SD), post-treatment: 0.167 ± 0.082 10^3/μL; Total leucocyte count (mean ± SD), post-treatment: 6.950 ± 1.089 10^3/μL; Eosinophil (mean ± SD), pre-treatment: 0.18 ± 0.08 10^3/μL; Total leucocyte count (mean ± SD), pre-treatment: 6.95 ± 1.57 10^3/μL
